# Test results reported in patent publication US4215111A, “Peptides having ubiquitin-like activity” (Ortho Pharmaceutical Corporation, priority 1979, dated 1980).
# Square brackets hold non-standard residues; d marks the D form. Peptide text beside a SMILES is read from it. Sar = CNCC(=O)O
# Columns and labels:
# [1] = tested on: Thy-1+ T-lymphocytes and complement receptor (CR+) B-lymphocytes differentiation; assay: In vitro induction of Thy-1+ T cell and CR+ B cell differentiation from nu/nu mouse spleen precursor cells; assay type: cell-based, nu/nu mice (BALB/c background); settings: for Active Concentration Range: induction of Thy-1+ T-lymphocytes and CR+ B-lymphocytes in vitro
# Experimental: To determine the activity and characteristics of the peptide of Example I, determinations were carried out on healthy 5-6 week nu/nu mice of both sexes, the mice being bred on a BALB/c background (thymocytes expressing Thy-1.2 surface antigen) and maintained under conventional conditions. For the antisera, anti Thy-1.2 sera were prepared in Thy-1 congenic mice.
# For the induction in vitro of Thy-1^+ T cells or CR^+ B cell differentiation, the induction of thymocyte differentiation from prothymocytes in vitro was performed as described by Komuro and Boyse, (Lancet, 1, 740, 1973), using the acquisition of Thy-1.2 as a marker of T cell differentiation. The induction of CR^+ B cell differentiation from CR^- B cell precursors in vitro was performed under similar conditions using as the assay criterion, the capacity of CR^+ B cells to bind sheep erythrocytes coated with subagglutinating quantities of rabbit antibody and nonlytic complement. Spleen cell populations from healthy nu/nu mice fractionated on discontinuous bovine serum albumin gradients were used as the source of both precursor types (Thy-1^- and CR^-) because they have few or no Thy-1^+ cells and low numbers of CR^+ cells.
# [2] = reference application; cited from earlier work
compound,measurement,setting,value
"NCCCC[C@H](NC(=O)[C@@H](N)CCC(N)=O)C(N)=O [Example I, H-GLN-LYS-NH2] (H-Gln-Lys-NH2)",potency relative to the thymopoietin pentapeptide,[1],same potency as the thymopoietin pentapeptide
same,ubiquitin-like biological activity (in words),[1]; induction of Thy-1+ T and CR+ B lymphocyte differentiation,selectivity of actions similar to that of ubiquitin
"CNCC(=O)N[C@@H](CCC(N)=O)C(=O)N[C@@H](CCCCN)C(N)=O [IV, H--SAR--GLN--LYS--NH2] (H-[Sar]-Gln-Lys-NH2)",Active Concentration Range,[1],1 to 10 µg/mL
"CNCC(=O)N(C)CC(=O)N(C)CC(=O)N[C@@H](CCC(N)=O)C(=O)N[C@@H](CCCCN)C(N)=O [VI, H--SAR--SAR--SAR--GLN--LYS--NH2] (H-[Sar][Sar][Sar]QK-NH2)",potency relative to the thymopoietin pentapeptide,[1],approximately 10 million
"CNCC(=O)N(C)CC(=O)N(C)CC(=O)N(C)CC(=O)N[C@@H](CCC(N)=O)C(=O)N[C@@H](CCCCN)C(N)=O [VII, H--SAR--SAR--SAR--SAR--GLN--LYS--NH2] (H-[Sar][Sar][Sar][Sar]QK-NH2)",Active Concentration Range,[1],1e-06 to 0.0001 µg/mL
H-ALA-ASN-ILE-GLN-LYS-OH (H-ANIQK-OH),concentration at which activity is possessed,[2],0.1 µg/mL
H-TYR-ALA-ILE-GLN-LYS-OH (H-YAIQK-OH),concentration at which activity is possessed,[2],0.1 µg/mL
H-TYR-ASN-ALA-GLN-LYS-OH (H-YNAQK-OH),concentration at which activity is possessed,[2],0.1 µg/mL
